Results published in ChEMBL document CHEMBL4422610, “HDAC as onco target: Reviewing the synthetic approaches with SAR study of their inhibitors” (Eur J Med Chem, 2018).
pIC50: −log10 of the molar value.

Legend:
[1] = molecular target: Histone deacetylase 4 (Homo sapiens, UniProt P56524); experiment: Inhibition of human HDAC4 using fluorogenic HDAC substrate
[2] = molecular target: Histone deacetylase 5 (Homo sapiens, UniProt Q9UQL6); experiment: Inhibition of human HDAC5 using fluorogenic HDAC substrate
Histone deacetylase 5, sequence (Q9UQL6 whole entry): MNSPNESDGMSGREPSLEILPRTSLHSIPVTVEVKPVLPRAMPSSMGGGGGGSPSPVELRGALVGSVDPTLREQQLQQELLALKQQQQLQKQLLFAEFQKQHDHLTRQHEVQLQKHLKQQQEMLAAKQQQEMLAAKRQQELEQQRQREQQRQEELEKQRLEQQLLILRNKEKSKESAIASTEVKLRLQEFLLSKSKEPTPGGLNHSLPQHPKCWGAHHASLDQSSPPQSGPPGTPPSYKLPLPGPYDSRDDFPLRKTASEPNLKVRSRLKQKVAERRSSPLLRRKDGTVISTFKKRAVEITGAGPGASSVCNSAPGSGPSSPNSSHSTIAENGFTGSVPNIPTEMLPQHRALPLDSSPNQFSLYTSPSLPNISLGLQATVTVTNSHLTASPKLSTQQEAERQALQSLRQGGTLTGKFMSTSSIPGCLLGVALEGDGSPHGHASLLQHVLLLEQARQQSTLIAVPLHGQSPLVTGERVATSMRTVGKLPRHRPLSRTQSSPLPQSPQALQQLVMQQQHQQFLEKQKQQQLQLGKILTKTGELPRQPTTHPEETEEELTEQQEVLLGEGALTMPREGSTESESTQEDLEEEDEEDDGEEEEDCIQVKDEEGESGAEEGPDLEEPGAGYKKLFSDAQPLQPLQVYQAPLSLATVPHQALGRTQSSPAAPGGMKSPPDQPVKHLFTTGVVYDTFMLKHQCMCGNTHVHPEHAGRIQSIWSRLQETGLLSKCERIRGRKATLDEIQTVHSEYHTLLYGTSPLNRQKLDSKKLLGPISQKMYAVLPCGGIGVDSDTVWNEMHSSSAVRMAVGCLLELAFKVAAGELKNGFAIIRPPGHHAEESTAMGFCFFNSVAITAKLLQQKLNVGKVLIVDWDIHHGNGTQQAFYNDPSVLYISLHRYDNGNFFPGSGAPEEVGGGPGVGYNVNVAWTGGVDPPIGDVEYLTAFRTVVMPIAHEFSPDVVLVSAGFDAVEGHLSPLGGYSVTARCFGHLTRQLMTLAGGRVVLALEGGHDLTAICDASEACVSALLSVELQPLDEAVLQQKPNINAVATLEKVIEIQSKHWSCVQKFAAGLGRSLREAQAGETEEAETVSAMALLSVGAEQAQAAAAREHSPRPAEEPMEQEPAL

[3] = molecular target: T1, Histone deacetylase 3 (Homo sapiens, UniProt O15379); experiment: Inhibition of human HDAC3 using fluorogenic HDAC substrate
T1 sequence (O15379 whole entry): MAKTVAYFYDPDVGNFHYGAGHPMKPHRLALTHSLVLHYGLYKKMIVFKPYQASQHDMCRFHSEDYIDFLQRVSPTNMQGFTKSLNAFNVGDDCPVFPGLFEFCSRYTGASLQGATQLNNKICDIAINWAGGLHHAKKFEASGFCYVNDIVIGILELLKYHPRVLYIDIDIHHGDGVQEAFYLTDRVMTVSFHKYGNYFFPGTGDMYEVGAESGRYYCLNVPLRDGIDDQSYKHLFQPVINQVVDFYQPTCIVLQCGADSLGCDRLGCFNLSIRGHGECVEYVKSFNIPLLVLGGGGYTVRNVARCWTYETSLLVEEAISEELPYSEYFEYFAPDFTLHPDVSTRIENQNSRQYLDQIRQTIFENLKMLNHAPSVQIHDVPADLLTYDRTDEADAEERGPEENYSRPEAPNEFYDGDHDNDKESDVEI

[4] = molecular target: T2, Histone deacetylase 11 (Homo sapiens, UniProt Q96DB2); experiment: Inhibition of human HDAC11 using fluorogenic HDAC substrate
T2 sequence (Q96DB2 whole entry): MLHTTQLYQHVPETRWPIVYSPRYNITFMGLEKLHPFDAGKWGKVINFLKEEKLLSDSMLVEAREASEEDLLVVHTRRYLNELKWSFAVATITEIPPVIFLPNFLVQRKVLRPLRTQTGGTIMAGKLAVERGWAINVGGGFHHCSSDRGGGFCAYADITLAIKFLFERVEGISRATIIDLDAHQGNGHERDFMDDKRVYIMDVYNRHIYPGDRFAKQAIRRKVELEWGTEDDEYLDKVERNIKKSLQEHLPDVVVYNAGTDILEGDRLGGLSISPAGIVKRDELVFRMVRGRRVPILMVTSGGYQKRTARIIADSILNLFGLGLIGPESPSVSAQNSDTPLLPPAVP

[5] = molecular target: T3, Histone deacetylase 1 (Homo sapiens, UniProt Q13547); experiment: Inhibition of human HDAC1 using fluorogenic HDAC substrate
T3 sequence (Q13547 whole entry): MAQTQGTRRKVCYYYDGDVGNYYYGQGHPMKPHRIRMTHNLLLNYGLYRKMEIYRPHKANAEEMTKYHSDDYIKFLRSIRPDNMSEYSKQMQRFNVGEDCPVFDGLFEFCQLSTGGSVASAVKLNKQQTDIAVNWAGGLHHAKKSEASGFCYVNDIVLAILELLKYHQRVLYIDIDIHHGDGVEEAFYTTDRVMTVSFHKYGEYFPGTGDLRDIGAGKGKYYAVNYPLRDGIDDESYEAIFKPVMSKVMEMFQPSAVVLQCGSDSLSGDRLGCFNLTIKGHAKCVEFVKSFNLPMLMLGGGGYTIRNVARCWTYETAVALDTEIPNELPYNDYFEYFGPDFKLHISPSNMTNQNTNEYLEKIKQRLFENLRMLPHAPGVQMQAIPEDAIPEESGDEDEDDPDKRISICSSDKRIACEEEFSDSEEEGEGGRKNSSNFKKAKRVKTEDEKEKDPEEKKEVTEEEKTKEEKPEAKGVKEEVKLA

[6] = molecular target: T4, Protein deacetylase HDAC6 (Homo sapiens, UniProt Q9UBN7); experiment: Inhibition of human HDAC6 using fluorogenic HDAC substrate
T4 sequence (Q9UBN7 whole entry): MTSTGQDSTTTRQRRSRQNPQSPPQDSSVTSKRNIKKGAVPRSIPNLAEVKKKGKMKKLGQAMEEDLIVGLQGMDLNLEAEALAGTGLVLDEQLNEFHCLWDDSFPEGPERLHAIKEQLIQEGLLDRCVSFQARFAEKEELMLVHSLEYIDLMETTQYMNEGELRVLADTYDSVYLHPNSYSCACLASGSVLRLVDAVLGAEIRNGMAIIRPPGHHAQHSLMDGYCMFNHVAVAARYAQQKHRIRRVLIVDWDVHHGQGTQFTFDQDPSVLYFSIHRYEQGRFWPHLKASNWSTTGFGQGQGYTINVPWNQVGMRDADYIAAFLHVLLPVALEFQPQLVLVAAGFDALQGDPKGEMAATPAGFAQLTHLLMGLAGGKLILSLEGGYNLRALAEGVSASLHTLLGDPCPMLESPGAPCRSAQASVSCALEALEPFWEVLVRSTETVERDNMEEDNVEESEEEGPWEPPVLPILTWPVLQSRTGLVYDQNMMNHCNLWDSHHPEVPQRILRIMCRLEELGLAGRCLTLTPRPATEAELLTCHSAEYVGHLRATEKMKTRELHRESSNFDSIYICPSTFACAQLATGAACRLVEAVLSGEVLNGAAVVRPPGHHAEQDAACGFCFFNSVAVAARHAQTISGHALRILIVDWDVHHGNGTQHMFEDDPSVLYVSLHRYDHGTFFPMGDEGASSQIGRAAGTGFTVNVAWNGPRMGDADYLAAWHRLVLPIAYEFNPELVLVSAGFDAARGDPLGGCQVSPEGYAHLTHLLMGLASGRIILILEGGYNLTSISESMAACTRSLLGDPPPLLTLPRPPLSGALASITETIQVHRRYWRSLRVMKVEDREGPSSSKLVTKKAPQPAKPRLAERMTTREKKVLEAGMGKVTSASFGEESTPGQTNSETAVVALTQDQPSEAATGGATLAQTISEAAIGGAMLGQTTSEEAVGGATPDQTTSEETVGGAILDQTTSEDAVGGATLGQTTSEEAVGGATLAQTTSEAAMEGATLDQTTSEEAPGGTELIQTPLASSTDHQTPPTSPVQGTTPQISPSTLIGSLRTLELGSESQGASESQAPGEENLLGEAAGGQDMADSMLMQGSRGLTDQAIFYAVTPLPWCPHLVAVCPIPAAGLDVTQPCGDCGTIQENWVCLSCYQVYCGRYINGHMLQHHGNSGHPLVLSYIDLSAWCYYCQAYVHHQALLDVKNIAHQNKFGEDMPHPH

[7] = molecular target: T5, Polyamine deacetylase HDAC10 (Homo sapiens, UniProt Q969S8); experiment: Inhibition of human HDAC10 using fluorogenic HDAC substrate
T5 sequence (Q969S8 whole entry): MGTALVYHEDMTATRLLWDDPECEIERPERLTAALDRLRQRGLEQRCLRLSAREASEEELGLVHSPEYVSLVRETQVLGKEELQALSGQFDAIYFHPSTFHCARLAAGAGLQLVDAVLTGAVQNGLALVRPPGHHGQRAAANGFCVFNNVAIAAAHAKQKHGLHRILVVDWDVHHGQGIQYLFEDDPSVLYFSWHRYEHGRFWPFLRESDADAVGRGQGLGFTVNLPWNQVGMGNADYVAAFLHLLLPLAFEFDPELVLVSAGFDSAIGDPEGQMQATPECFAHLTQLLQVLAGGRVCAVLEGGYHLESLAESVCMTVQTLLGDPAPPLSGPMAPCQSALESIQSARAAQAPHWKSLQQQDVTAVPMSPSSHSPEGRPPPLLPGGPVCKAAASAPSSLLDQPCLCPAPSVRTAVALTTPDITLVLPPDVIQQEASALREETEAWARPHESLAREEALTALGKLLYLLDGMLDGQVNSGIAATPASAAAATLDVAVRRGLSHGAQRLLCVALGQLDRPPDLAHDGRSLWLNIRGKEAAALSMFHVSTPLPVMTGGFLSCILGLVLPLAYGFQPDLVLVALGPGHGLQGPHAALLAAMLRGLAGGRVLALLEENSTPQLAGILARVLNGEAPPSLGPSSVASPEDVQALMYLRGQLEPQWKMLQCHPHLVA

[8] = molecular target: Histone deacetylase 9 (Homo sapiens, UniProt Q9UKV0); experiment: Inhibition of human HDAC9 using fluorogenic HDAC substrate
Histone deacetylase 9, sequence (Q9UKV0 whole entry): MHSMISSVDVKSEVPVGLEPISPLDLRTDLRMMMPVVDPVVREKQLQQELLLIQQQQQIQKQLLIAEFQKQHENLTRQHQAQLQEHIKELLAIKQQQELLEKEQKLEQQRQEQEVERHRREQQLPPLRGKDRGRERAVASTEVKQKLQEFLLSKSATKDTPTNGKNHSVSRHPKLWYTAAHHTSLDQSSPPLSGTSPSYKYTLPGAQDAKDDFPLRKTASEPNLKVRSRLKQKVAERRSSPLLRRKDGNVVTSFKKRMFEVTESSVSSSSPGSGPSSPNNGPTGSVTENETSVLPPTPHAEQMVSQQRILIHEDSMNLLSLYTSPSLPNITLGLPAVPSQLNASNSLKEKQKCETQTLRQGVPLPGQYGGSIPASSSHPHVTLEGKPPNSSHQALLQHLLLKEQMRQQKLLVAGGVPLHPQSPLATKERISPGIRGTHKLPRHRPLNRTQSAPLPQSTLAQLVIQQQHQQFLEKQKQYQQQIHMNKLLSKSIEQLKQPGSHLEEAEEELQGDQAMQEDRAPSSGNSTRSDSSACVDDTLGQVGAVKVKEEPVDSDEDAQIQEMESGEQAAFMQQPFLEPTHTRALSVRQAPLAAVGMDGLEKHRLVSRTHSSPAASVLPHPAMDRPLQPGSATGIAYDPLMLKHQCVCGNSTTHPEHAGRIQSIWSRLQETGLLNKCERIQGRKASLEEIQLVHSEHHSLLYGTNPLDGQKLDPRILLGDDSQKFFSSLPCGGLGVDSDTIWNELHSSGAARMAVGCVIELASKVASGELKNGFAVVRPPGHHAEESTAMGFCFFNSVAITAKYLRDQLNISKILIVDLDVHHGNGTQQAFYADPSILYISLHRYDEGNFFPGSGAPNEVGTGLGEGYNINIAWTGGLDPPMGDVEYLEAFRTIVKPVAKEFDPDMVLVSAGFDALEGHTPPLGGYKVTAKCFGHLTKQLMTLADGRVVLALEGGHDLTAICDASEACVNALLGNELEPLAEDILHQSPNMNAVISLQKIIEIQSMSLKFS

[9] = molecular target: T6, Histone deacetylase 8 (Homo sapiens, UniProt Q9BY41); experiment: Inhibition of human HDAC8 using fluorogenic HDAC substrate
T6 sequence (Q9BY41 whole entry): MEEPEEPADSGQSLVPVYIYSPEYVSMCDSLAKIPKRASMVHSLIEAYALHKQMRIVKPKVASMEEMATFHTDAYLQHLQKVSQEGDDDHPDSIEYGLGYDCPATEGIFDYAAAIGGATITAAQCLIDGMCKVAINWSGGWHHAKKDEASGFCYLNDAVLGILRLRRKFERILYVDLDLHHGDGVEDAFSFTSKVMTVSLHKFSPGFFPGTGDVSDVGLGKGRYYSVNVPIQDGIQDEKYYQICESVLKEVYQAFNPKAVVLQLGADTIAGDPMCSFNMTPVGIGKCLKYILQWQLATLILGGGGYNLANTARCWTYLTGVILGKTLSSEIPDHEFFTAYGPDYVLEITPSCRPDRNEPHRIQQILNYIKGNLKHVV

[10] = molecular target: T3, Histone deacetylase 1; experiment: Inhibition of GST-tagged HDAC1 (unknown origin) expressed in insect cells using poly (Glu, Tyr) 4:1 as substrate measured after 15 mins in presence of [gamma-33P]ATP by Topcount method
[11] = molecular target: Histone deacetylase 2 (Homo sapiens, UniProt Q92769); experiment: Inhibition of human HDAC2 using fluorogenic HDAC substrate
Histone deacetylase 2, sequence (Q92769 whole entry): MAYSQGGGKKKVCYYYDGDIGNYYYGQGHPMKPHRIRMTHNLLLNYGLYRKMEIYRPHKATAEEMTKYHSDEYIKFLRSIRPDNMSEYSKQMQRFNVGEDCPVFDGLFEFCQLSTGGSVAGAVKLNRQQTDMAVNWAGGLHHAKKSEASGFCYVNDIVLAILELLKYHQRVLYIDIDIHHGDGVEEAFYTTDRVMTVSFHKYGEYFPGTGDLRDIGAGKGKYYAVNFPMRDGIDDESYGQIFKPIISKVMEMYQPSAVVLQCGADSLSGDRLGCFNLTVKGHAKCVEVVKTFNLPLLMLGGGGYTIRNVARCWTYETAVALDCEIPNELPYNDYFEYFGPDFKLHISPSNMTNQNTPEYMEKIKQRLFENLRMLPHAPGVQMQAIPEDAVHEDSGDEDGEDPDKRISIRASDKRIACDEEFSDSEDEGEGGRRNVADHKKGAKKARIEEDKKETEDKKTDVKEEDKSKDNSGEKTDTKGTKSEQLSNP

[12] = molecular target: Histone deacetylase (HDAC1 and HDAC2) (Homo sapiens, UniProt Q13547+Q92769); assay type: cell-based; details: hela
[13] = molecular target: T1, Histone deacetylase 3; experiment: Inhibition of HDAC3 (unknown origin)
[14] = molecular target: T4, Protein deacetylase HDAC6; experiment: Inhibition of HDAC6 (unknown origin)
[15] = molecular target: T3, Histone deacetylase 1; experiment: Inhibition of HDAC1 (unknown origin) using Ac-peptide as substrate preincubated for 15 mins followed by substrate addition and measured after 60 mins by fluorescence assay
[16] = system: Zea mays; experiment: Inhibition of maize HD2 at 5 uM using [3H]acetate-labelled histone as substrate by liquid scintillation counting method relative to control
[17] = molecular target: T4, Protein deacetylase HDAC6; experiment: Inhibition of recombinant full-length human HDAC6 expressed in baculovirus expression system using FAM-RHKK(Ac)-H2 as substrate measured by electrophoretic mobility shift assay

Histone deacetylase 4, sequence (P56524 whole entry): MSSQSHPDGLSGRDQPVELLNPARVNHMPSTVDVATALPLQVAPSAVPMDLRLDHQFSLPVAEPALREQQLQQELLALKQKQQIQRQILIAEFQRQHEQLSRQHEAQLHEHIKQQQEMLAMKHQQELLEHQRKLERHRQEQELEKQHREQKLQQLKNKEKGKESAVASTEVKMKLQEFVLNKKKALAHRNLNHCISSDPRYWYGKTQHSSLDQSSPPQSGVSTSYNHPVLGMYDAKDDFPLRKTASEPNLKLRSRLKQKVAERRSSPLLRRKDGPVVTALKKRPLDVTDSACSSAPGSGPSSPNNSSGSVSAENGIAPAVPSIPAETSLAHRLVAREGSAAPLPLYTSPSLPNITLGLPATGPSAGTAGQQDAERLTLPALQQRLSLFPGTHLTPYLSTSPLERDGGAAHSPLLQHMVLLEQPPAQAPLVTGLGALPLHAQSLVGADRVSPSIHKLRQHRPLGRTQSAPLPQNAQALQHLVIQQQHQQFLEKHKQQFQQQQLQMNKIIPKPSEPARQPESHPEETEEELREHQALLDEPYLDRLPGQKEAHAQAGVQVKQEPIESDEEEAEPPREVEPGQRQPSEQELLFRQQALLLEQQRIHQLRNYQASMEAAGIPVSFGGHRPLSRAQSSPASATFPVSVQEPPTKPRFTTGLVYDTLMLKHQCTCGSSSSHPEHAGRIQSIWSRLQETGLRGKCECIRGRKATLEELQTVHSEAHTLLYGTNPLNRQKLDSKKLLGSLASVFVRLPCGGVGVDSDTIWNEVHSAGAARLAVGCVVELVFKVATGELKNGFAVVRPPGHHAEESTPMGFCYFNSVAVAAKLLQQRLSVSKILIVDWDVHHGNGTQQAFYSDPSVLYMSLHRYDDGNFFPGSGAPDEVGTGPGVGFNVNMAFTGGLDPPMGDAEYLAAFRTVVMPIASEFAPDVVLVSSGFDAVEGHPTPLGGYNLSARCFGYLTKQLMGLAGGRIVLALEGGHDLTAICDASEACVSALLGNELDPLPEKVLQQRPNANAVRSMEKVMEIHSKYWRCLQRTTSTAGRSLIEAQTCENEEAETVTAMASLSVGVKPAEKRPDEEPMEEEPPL

## O=C(NO)c1ccc(CN2c3ccccc3C[C@@H]3CCCCC[C@H]32)cc1
[1]
  pIC50: < 4.52
[2]
  pIC50: < 4.52
[3]
  pIC50: < 4.52
[4]
  pIC50: 5.92
[5]
  pIC50: < 4.52
[6]
  pIC50: 7.48
[7]
  pIC50: < 4.52
[8]
  pIC50: < 4.52
[9]
  pIC50: 5.17

## O=C(/C=C/c1ccc(C2CCCN2CCc2c(-c3cccnc3)nn3ccccc23)cc1)NO (configuration not stated)
[10]
  pIC50: 9.00

## O=C(NO)c1ccc(Cn2c3c(c4cc(F)ccc42)CS(=O)(=O)CC3)cc1
[2]
  pIC50: 6.30
[3]
  pIC50: 4.59
[7]
  pIC50: 5.23
[8]
  pIC50: 6.30
[9]
  pIC50: 6.05
[11]
  pIC50: 4.54

## COc1cc(/C=C/C(=O)NO)ccc1OCCCCN(C)C(=O)c1ccccc1O
[12]
  IC50: 0.22 µM
[13]
  pIC50: 6.59
[14]
  pIC50: 6.42

## Cc1nn2ccccc2c1CCN1CCCC1c1ccc(/C=C/C(=O)NO)cc1 (configuration not stated)
[10]
  pIC50: 9.22

## O=C(CCCCCOc1ccccc1N1C(=O)CSC1c1cccc(Br)c1)NO (configuration not stated)
[15]
  pIC50: 6.59

## O=C(CCCCCC(=O)Nc1ccccc1N1C(=O)CSC1c1cccc(Br)c1)NO (configuration not stated)
[15]
  pIC50: 7.54

## O=C(CCCCCCOc1ccccc1N1C(=O)CSC1c1cccc(Br)c1)NO (configuration not stated)
[15]
  pIC50: 7.30

## Cn1cc(C(=O)c2ccccc2)cc1/C=C/C(=O)NO
[16]
  inhibition: 86%

## COc1ccccc1N1C(=O)CSC1c1cccc(C(=O)NCCCCCC(=O)NO)c1 (configuration not stated)
[15]
  pIC50: 7.43

## COc1ccccc1N1C(=O)CSC1c1cccc(C(=O)NCCCC(=O)NO)c1 (configuration not stated)
[15]
  pIC50: 5.31

## O=C(/C=C/c1ccc(C2CCCN2CCc2cnn3ccccc23)cc1)NO (configuration not stated)
[10]
  pIC50: 9.05

## O=C(CCCOc1ccccc1N1C(=O)CSC1c1cccc(Br)c1)NO (configuration not stated)
[15]
  pIC50: 5.73

## O=C(NO)c1ccc(Cn2c3c(c4ccccc42)CS(=O)(=O)CC3)cc1
[2]
  pIC50: 6.30
[3]
  pIC50: 4.54
[7]
  pIC50: 5.11
[8]
  pIC50: 6.52
[11]
  pIC50: 4.59

## COc1ccccc1N1C(=O)CSC1c1cccc(NC(=O)CCC(=O)NO)c1 (configuration not stated)
[15]
  pIC50: 6.46

## CC(C)N1CCC2(CCc3ccc(C(=O)NO)cc3C2)C1=O (configuration not stated)
[17]
  pIC50: < 6.30

## O=C(CCCOc1ccccc1N1C(=O)CSC1c1ccc(Br)s1)NO (configuration not stated)
[15]
  pIC50: 7.14

## COc1ccccc1N1C(=O)CSC1c1cccc(NC(=O)CCCCCC(=O)NO)c1 (configuration not stated)
[15]
  pIC50: 7.77

## O=C(NO)c1ccc(CN2c3ccccc3CCC[C@@H]3CCCC[C@H]32)cc1
[1]
  pIC50: < 4.52
[2]
  pIC50: 5.04
[3]
  pIC50: 4.62
[4]
  pIC50: 5.62
[5]
  pIC50: 5.09
[6]
  pIC50: 8.10
[7]
  pIC50: 5.00
[8]
  pIC50: 4.89
[9]
  pIC50: 5.96
[11]
  pIC50: 4.62
